Marks after values point to notes of the source that are not given here.
How the values were obtained:
[1] = tested on: patients with acute heart failure (AHF); experiment: Patient-reported dyspnea (7-point Likert Scale, 100-mm VAS), Pre-RELAX-AHF trial; assay type: in vivo, human; conditions: for average improvement in dyspnea VAS over the 5 days: corresponds to AUC to Day 5; for average change in dyspnea VAS over the 14 days: corresponds to AUC to Day 14; for Dyspnea AUC Change from baseline to Day 5 (VAS; mm*hr) / Dyspnea AUC Change from baseline to Day 14 (VAS; mm*hr): mean ± SD
Description: (§1) Study Procedures. The study was approved by the relevant ethics committees, institutional review hoards and regulatory authorities, and conducted under the International Conference on Harmonization Good Clinical Practice guidelines. All patients provided informed written consent prior to participation. […] The placebo used for the study was the same solution as the diluent used to prepare the 100 μg/kg/day dose. The randomization ratio was 3:2:2:2:2, respectively, Relaxin (Corthera, San Mateo, Calif.) was manufactured using recombinant techniques and was identical to the naturally-occurring peptide hormone. By protocol, the study drug infusion was to be terminated if the patient's SBP was reduced to <100 mmHg or by >40 mmHg compared to baseline in two successive measurements, 15 minutes apart. Investigators were not prohibited from utilizing any standard medication, thought necessary to treat patients enrolled in the study, including additional vasodilators, following a 4-hour washout period during which time IV vasodilators, IV pure inotropes and meals were withheld, hemodynamic, renal, and clinical responses to 48 hours of study drug infusion were assessed.
(§2) Study Endpoints. […] 4.) Length of initial hospital stay.
Dyspnea Responses. Results are presented via the Visual Analog Score (VAS) and the Likert Score. The VAS score measures a characteristic of attitude that ranges across a continuum of values, for example, the amount of discomfort an AHF patient feels ranges across a continuum from none to an extreme amount of discomfort and/or pain including dyspnea, hypertension, high blood pressure, arrhythmia and reduced renal blood flow. From the patient's perspective this spectrum appears continuous, which the VAS captures. Operationally a VAS is usually a horizontal line, 100 mm in length, anchored by word descriptors at each end (e.g., no discomfort on one end and severe discomfort on the other end). The patients marked on the line the point that they fell represented their perception of their current state. The VAS score is determined by measuring in millimeters from the left hand end of the line to the point that the patient marks (Wewers et al., Research in Nursing and Health 13:227-236, 1990).
The Likert Score is a unidimensional sealing method known in the art, wherein the set of scale items are rated on a numerical (herein 7-point) Disagree-Agree response scale. Each patient was asked to rate each item on the response scale. The final score for the respondents on the scale is the sum of their ratings for all of the items.

[2] = tested on: patients with acute heart failure (AHF); experiment: In-hospital short-term outcomes (worsening heart failure, length of stay, signs of heart failure, diuretic and nitroglycerin use, body weight), Pre-RELAX-AHF trial; assay type: in vivo, human; conditions: for Length of Hospital Stay: mean ± SD
Description: as §1, §2

[3] = 30 mcg/kg/d IV 48 h, listed as relaxin
[4] = relaxin for 48 hours, AHF patients

## Relaxin
[1]; 30 μg/kg/day, AHF patients with SBP greater than the median, FIG. 7
  percent moderate or marked improvement in dyspnea (Likert), sustained over 14 days: about 90%
[1]; 30 μg/kg/day, FIG. 12
  improvement in dyspnea within 6, 12 and 24 hours of administration: statistically significant improvement in dyspnea
[1]; 10 mcg/kg/d IV 48 h
  % moderately/markedly better dyspnea at 6, 12 and 24 hrs (Likert): 27.5%
  average improvement in dyspnea VAS over the 5 days: 21 mm
  average change in dyspnea VAS over the 14 days: 10 mm
  Dyspnea AUC Change from baseline to Day 5 (VAS; mm*hr): 2500 ± 2908 mm*hr
  Dyspnea AUC Change from baseline to Day 14 (VAS; mm*hr): 6366 ± 10078 mm*hr
[1]; 30 mcg/kg/d IV 48 h
  % moderately/markedly better dyspnea at 6, 12 and 24 hrs (Likert): 40.5%
  average improvement in dyspnea VAS over the 5 days: 22 mm
  average change in dyspnea VAS over the 14 days: 25 mm
  Dyspnea AUC Change from baseline to Day 5 (VAS; mm*hr): 2567 ± 2898 mm*hr
  Dyspnea AUC Change from baseline to Day 14 (VAS; mm*hr): 8214 ± 8712 mm*hr
[1]; [3]
  % moderately/markedly better dyspnea at 6, 12 and 24 hrs (Likert): 40.5%
  Dyspnea AUC Change from baseline to Day 5 (VAS; mm*hr): 2567±2898 mm*hr
  Dyspnea AUC Change from baseline to Day 14 (VAS; mm*hr): 8214±8712 mm*hr
[1]; 100 mcg/kg/d IV 48 h
  % moderately/markedly better dyspnea at 6, 12 and 24 hrs (Likert): 13.5%
  average improvement in dyspnea VAS over the 5 days: 21 mm
  average change in dyspnea VAS over the 14 days: 25 mm
  Dyspnea AUC Change from baseline to Day 5 (VAS; mm*hr): 2486 ± 2865 mm*hr
  Dyspnea AUC Change from baseline to Day 14 (VAS; mm*hr): 8227 ± 9707 mm*hr
[1]; 250 mcg/kg/d IV 48 h
  % moderately/markedly better dyspnea at 6, 12 and 24 hrs (Likert): 22.4%
  average improvement in dyspnea VAS over the 5 days: 18 mm
  average change in dyspnea VAS over the 14 days: 21 mm
  Dyspnea AUC Change from baseline to Day 5 (VAS; mm*hr): 2155 ± 2338 mm*hr
  Dyspnea AUC Change from baseline to Day 14 (VAS; mm*hr): 6856 ± 7923 mm*hr
[1]; AHF patients with CrCl less than the median, FIG. 8
  time at which a beneficial effect on dyspnea was first seen: 6 h
[1]; AHF patients with SBP greater than the median, FIG. 7
  time at which a beneficial effect on dyspnea was first seen: 6 h
[1]; all relaxin-treated AHF patients
  onset of improvement in dyspnea: ≤ 6 h
[1]; see FIG. 6
  serum concentration at which relaxin was shown to be fully effective: 3 to 6 ng/mL
[2]; 10 mcg/kg/d IV 48 h
  % of subjects at Day 5 with: JVP <6 cm: 72.5%
  % of subjects at Day 5 with: No edema: 55.0%
  % of subjects at Day 5 with: No rales: 65.0%
  Worsening HF through Day 5 (%): 20.0%
  patients receiving intravenous nitroglycerin during the first 24 hours: 10.0%
  Length of Hospital Stay: 10.9 ± 8.5 days
  Median change in body weight from baseline to Day 14 [kg; median (Q1; Q3)]: -2.0 kg
  Median total IV diuretic dose from randomization to Day 5 [mg; median (Q1-Q3)]: 100 mg
[2]; 30 mcg/kg/d IV 48 h
  % of subjects at Day 5 with: JVP <6 cm: 78.6%
  % of subjects at Day 5 with: No edema: 64.3 † %
  % of subjects at Day 5 with: No rales: 76.2%
  Worsening HF through Day 5 (%): 11.9%
  patients receiving intravenous nitroglycerin during the first 24 hours: 9.5%
  Length of Hospital Stay: 10.2 ± 6.1 days
  Median change in body weight from baseline to Day 14 [kg; median (Q1; Q3)]: -3.0 kg
  Median total IV diuretic dose from randomization to Day 5 [mg; median (Q1-Q3)]: 100 mg
[2]; 100 mcg/kg/d IV 48 h
  % of subjects at Day 5 with: JVP <6 cm: 73.0%
  % of subjects at Day 5 with: No edema: 51.4 * %
  % of subjects at Day 5 with: No rales: 70.3%
  Worsening HF through Day 5 (%): 13.5%
  patients receiving intravenous nitroglycerin during the first 24 hours: 13.5
  Length of Hospital Stay: 11.1 ± 6.6 days
  Median change in body weight from baseline to Day 14 [kg; median (Q1; Q3)]: -2.5 kg
  Median total IV diuretic dose from randomization to Day 5 [mg; median (Q1-Q3)]: 90 + mg
[2]; 250 mcg/kg/d IV 48 h
  % of subjects at Day 5 with: JVP <6 cm: 76.6 + %
  % of subjects at Day 5 with: No edema: 61.2 † %
  % of subjects at Day 5 with: No rales: 71.4%
  Worsening HF through Day 5 (%): 10.2%
  patients receiving intravenous nitroglycerin during the first 24 hours: 4.1%
  Length of Hospital Stay: 10.6 ± 6.6 days
  Median change in body weight from baseline to Day 14 [kg; median (Q1; Q3)]: -2.0 kg
  Median total IV diuretic dose from randomization to Day 5 [mg; median (Q1-Q3)]: 140 mg
[2]; relaxin administered for as little as 48 hours
  period over which the improvements lasted: 14 days
[2]; [4]
  reduction in excessive body weight due to fluid retention, average loss: about 1 kg
  shorter hospital stays: ≤ 2.5 days
[2]; relaxin groups 10-250 mcg/kg/d vs placebo
  mean length of stay for the index hospitalization, shorter than for placebo: 0.9 to 1.8 days

From US9205132B2, “Method of lowering mortality” (CORTHERA, INC., priority 2008, dated 2015)
